Tests used:
[1] = test system: Z119 acute lymphoblastic leukemia cells; experiment: In vitro purging of Z119 acute lymphoblastic leukemia; assay type: cell-based, human; conditions: 50 μM, 2.5 hours exposure; FIG. 15
Experimental: (§1) For the purging assay, the cells were resuspended in complete medium with or without CR4 as indicated and incubated at 37° C., 5% CO2 for 0–5 hours. Cells were then washed thoroughly with medium to remove the CR4, resuspended and plated in 1 ml volumes, in the absence of exogenous growth factors, into 35 mm petri dishes (Nunc, Gibco) containing alpha MEM (Gibco) plus 20% FCS (Cansera Rexdale, ON.) in 0.9% (vol/vol) methylcellulose (Fluka, Switzerland). Cultures were set at 37° C., 5% CO2 in a humidified atmosphere. Colonies consisting of more than 20 cells were counted at 9 days or earlier using an inverted microscope.

[2] = test system: OCI-AML-3 acute myeloid leukemia cells; experiment: In vitro purging of OCI-AML-3 cells; assay type: cell-based; conditions: 2.5–5 hours exposure, FIG. 17
Experimental: as §1, with “remove” for “remove the”, “ml volumes at 5×10^3 cells/ml,” for “ml volumes,”, “plus 10%” for “plus 20%”, “at 5” for “at 9”

normal bone marrow cells = experiment: CFU-GEMM assay, normal bone marrow differentiation in culture; assay type: cell-based
Experimental: The CFU-GEMM assay was performed according to Fauser and Messner (1978, Blood, 52(6) 143–8) and Messner and Fausser (1980, Blut, 41(5) 327–33) with some variations. In brief, heparinized bone marrow cells were layered over Percoll (1.077 gm/ml) (Pharmacia Fine Chemical, Piscataway N.J.) and centrifuged at 400 g at 4° C. for 10 minutes to remove neutrophils and RBCs. The fractionated BM cells at 2×10^5 cells/ml were cultured in IMDM (OCI, Toronto) containing 0.9% (vol/vol) methylcellulose supplemented with 30% FCS (Cansera Rexdale, ON.) or normal human plasma, a cocktail of cytokines containing G-CSF (10 ng/ml, Amgen), IL-3 (40 U/ml, Immunex), MGF (50 ng/ml, Immunex), Erythropoietin (2 u/ml, Epprex) or TPO (10 ng/ml, Amgen), 5×10^−5M β-2-mercaptoethanol and the specified concentration of CR4. The culture mixture was plated in 1 ml volumes into 35 mm petri dishes and incubated at 37° C., 5% CO2 in a humidified atmosphere. All cultures were evaluated at 14 days for the number of BFU-E colonies (defined as aggregates of more than 500 hemoglobinized cells or, 3 or more erythroid subcolonies), CFU-GM colonies (defined as granulocyte or monocyte-macrophage cells or both), CFU-Meg colonies (comprising 4 or more megakaryocytes) and CFU-GEMM colonies (a mixed population comprising of all elements).
The CFU-GEMM assay was performed according to Fauser and Messner (1978, Blood, 52(6) 1243–8) and Messner and Fausser (1980, Blut, 41(5) 327–33) with some variations. In brief, heparinized bone marrow cells were layered over Percoll (1.077 gm/ml) (Pharmacia Fine Chemical, Piscataway N.J.) and centrifuged at 400 g at 4° C. for 10 minutes to remove neutrophils and RBCs. […] All cultures were evaluated at 14 days for the number of BFU-E colonies (defined as aggregates of more than 500 hemaglobinized cells or, 3 or more erythroid subcolonies) and CFU-C colonies (defined as granulocyte or monocyte-macrophage cells or both).
The CFU-GEMM assay was performed according to Fauser and Messner (1978, Blood, 52(6) 1243–8) and Messner and Fausser (1980, Blut, 41(5) 327–33) with some variations (British Journal of Haematology, 1992, 80, p40–48). […] All cultures were evaluated at 14 days for the number of BFU-E colonies (defined as aggregates of more than 500 hemoglobinized cells or, 3 or more erythroid subcolonies) and CFU-C colonies (defined as granulocyte or monocyte-macrophage cells or both).

Ly-MN lymphoma cells = experiment: Killing of Ly-MN lymphoma cells in colony culture; assay type: cell-based; conditions: colonies at 5 days; FIG. 5
Experimental: Ly-MN cells were plated in 1 ml volumes, in the absence of exogenous growth factors, into 35 mm petri dishes (Nunc, Gibco) containing IMDM (OCI, Toronto) plus 20% human cord blood plasma in 0.9% (vol/vol) methylcellulose (Fluka, Switzerland) and the indicated concentrations of CR4. Cultures were set at 37° C., 5% CO2 in a humidified atmosphere. Colonies consisting of more than 20 cells were counted at 5 days or earlier using an inverted microscope.

[3] = Retention in blood after I.V. injection; assay type: in vivo
[4] = test system: Philadelphia positive ALL, AML and lymphoma; experiment: In vitro / ex vivo purging assays, summary statements; assay type: cell-based

N#C/C(=C\C=C\c1ccc(O)c(O)c1)C(=O)NCc1ccccc1 [CR4, (E,E)-2-(Benzylamido)-3-(3,4-dihydroxystyryl)acrylonitrile]
inhibition of Z119 cells [1]: complete inhibition
killing of OCI-AML-3 cells ([2]; 25 μM): significant killing
killing of OCI-AML-3 cells ([2]; 50 μM): significant killing
effect upon normal cells (normal bone marrow cells; at concentrations equivalent to those active on the cancer cells of the same example): no effect
toxicity to normal cells (normal bone marrow cells; until concentrations of 10–20 μM or greater were achieved): minimal toxicity
concentration by which inhibition was effected (Ly-MN lymphoma cells): 2.5 µM
time still detectable in the blood after I.V. injection [3]: ≥ 30 min
efficacy as ex vivo purging agents [4]: effective

— patent US7012095B2, “Compounds for modulating cell proliferation” (HSC Research and Development Limited, priority 2000, dated 2006)
